Experimental data taken from patent publication US20080015166A1, “Barrier Integrity in Hiv Patients” (N.V. Nutricia, priority 2004, published 2008).

Tests used:
[1] = test system: MUC-2 expression in intestinal epithelial T84 cells; conditions: 24 h, 0.025-4.0 mM, MC T84 and CC T84, compared to propionate and butyrate
[2] = test system: intestinal epithelial cell lines T84 monolayers incubated with IL-4; test: Effect of LC-PUFA on IL-4 mediated barrier disruption: TER and flux in T84 monolayers; assay type: cell-based, human; conditions: for Permeability (IL-4 Flux) / Resistance (IL-4 TER) / effect on IL-4 mediated barrier disruption (flux), in words: 100 μM; for Permeability (IL-4 Flux) / Resistance (IL-4 TER): 48 hr pre-incubation then 48 hr co-incubation with IL-4 2 ng/ml; for effect on IL-4 mediated barrier disruption (flux), in words: Table 2; for IL-4 mediated barrier destruction (Flux), FIG. 2 (in words): time and dose (10 μM and 100 μM) dependent, 4 kD dextran flux
Experimental: (§1) Monolayers (MC) of intestinal epithelial cell lines T84 (American Type Culture Collection (ATTC), Manassas, USA) were cultured on transwell filters (Corning, Costar B V, The Netherlands) allowing both mucosal and serosal sampling and stimulation of human intestinal epithelial cells. Two weeks post confluency the monolayers were incubated in the luminal compartment with polyunsaturated fatty acids ARA (arachidonic acid; 5,8,11,14-eicosatetraenoic acid), DHA (cis-4,7,10,13,16,19 docosahexaenoic acid), EPA (eicosapentaenoic acid) or control palmitic (C 16:0) acid (Palm) (Sigma, St. Louis, USA). The latter procedure was chosen to mimic the in vivo administration route of the dietary compounds. Cells were incubated with ARA, DHA, EPA, GLA or palmitic acid for 0, 24, 48 and 72 hr at different concentrations (10 μM and 100 μM). Experiments were performed to evaluate basal barrier integrity. The epithelial barrier function was determined by measuring the transepithelial resistance (TER, Ω.cm^2) was measured by epithelial volt-ohm meter (EVOM; World Precision Instruments, Germany) and permeability for 4 kD FITC dextran (paracellular permeability marker, Sigma, USA). Resistance (. Epithelial permeability for 4 kDa FITC-dextran was determined as follows. Prior to dextran fluxes the medium was refreshed with culture medium without phenol red for one hour followed by addition of 5 μl (stock 100 mg/ml) 4 kDa FITC-dextran to the lumenal compartment. After 30 min incubation 100 μl sample was collected from the serosal compartment and the fluorescent signal measured at excitation wavelength 485 nm and emission 520 nm (FLUOstar Galaxy®, BMG Labtechnologies, USA). FITC-dextran fluxes were calculated as pmol FITC-dextran/cm^2/h. Statistical analyses were performed using the ANOVA (SPSS version 10).
Monolayers (MC) of intestinal epithelial cell lines T84 (ATCC, USA) were cultured on transwell filters (Corning, Costar B V, The Netherlands) allowing both mucosal and serosal sampling and stimulation of human intestinal epithelial cells. Two weeks post confluency the monolayers were incubated in the presence of IL-4 (2 ng/ml, serosal compartment, Sigma, USA ) with or without polyunsaturated fatty acids ARA, DHA, GLA, EPA, or control palmitic acid (10 μM or 100 μM, mucosal compartment, Sigma, St. Louis, USA). Cells were pre-incubated with GLA, ARA, DHA, EPA, or palmitic acid for 48 hr prior to the IL-4 incubation. The co-incubation of PUFA's and palmetic acid with IL-4 was continued for another 48 hr; while culture medium and additives were changed every 24 hr. The epithelial barrier function was determined by measuring the transepithelial resistance (TER) and permeability as described in example 1. Statistical evaluation was performed as described in example 1.

[3] = test system: intestinal epithelial cell lines T84 monolayers; test: Effect of LC-PUFA on basal (spontaneous) barrier integrity: TER and 4 kD FITC dextran flux in T84 monolayers; assay type: cell-based, human; conditions: for effect on epithelial resistance (in words) / effect on molecular flux (in words): 100 μM, 72 hr, Table 1; for basal barrier integrity (TER), FIG. 1 (in words): time and dose (10 μM and 100 μM) dependent
Experimental: as §1

| Structure (SMILES) | stimulating MUC-2 expression (mucus production), FIG. 4 (in words) [1] | Permeability (IL-4 Flux) [2] | Resistance (IL-4 TER) [2] | effect on epithelial resistance (in words) [3] | effect on molecular flux (in words) [3] | effect on IL-4 mediated barrier disruption (flux), in words [2] | basal barrier integrity (TER), FIG. 1 (in words) [3] | IL-4 mediated barrier destruction (Flux), FIG. 2 (in words) [2] |
| --- | --- | --- | --- | --- | --- | --- | --- | --- |
| CC(=O)O [acetate] | more potent |  |  |  |  |  |  |  |
| CC/C=C\C/C=C\C/C=C\C/C=C\C/C=C\CCCC(=O)O [EPA, eicosapentaenoic acid] |  | 236 ↓ pmol FITC-dextran/cm^2/h | 375 ↑ Ω.cm^2 |  |  |  |  |  |
| CCCCCCCCCCCCCCCC(=O)O [Palmitic acid, palmitic acid, reference compound] |  |  |  | opposite effects | opposite effects | detrimental effect |  |  |
| CCCCCC=CCC=CCC=CCC=CCCCC(=O)O [ARA, 5,8,11,14-eicosatetraenoic acid] |  | 273 ↓ pmol FITC-dextran/cm^2/h | 337 ↑ Ω.cm^2 | improve epithelial resistance | reduce the molecular flux | inhibit the increased flux caused by IL-4 | increased resistance | decreased 4 kD dextran flux |
| CCCCC/C=C\C/C=C\C/C=C\CCCCC(=O)O [GLA, gamma linolenic acid] |  | 360 ↓ pmol FITC-dextran/cm^2/h | 331 ↑ Ω.cm^2 | improve epithelial resistance | reduce the molecular flux | inhibit the increased flux caused by IL-4 | increased resistance | decreased 4 kD dextran flux |
| CCC=CCC=CCC=CCC=CCC=CC/C=C\CCC(=O)O [DHA, cis-4,7,10,13,16,19 docosahexaenoic acid] |  | 304 ↓ pmol FITC-dextran/cm^2/h | 328 ↑ Ω.cm^2 | improve epithelial resistance | reduce the molecular flux | inhibit the increased flux caused by IL-4 | increased resistance | decreased 4 kD dextran flux |
